Data as given in article PMC8362065, “Easily Available, Amphiphilic Diiron Cyclopentadienyl Complexes Exhibit in Vitro Anticancer Activity in 2D and 3D Human Cancer Cells through Redox Modulation Triggered by CO Release” (Chemistry (Weinheim an Der Bergstrasse, Germany), 2021).

How the values were obtained:
[1] = Solubility in D2O by 1H NMR (Me2SO2 internal standard); assay type: physicochemical; conditions: 21 °C
Procedure: Solubility in water. A suspension of the selected Fe compound (3–5 mg) in a D2O solution (0.7 mL) containing Me2SO2 as internal standard^52 (3.36 ⋅ 10^−3 M) was vigorously stirred at 21 °C for 10 h. The resulting saturated solution was filtered over celite, transferred into an NMR tube and analysed by ^1H NMR spectroscopy (delay time=3 s; number of scans=20). For the most soluble compounds (S≥0.05 M), a saturated solution was prepared in a smaller volume of D2O/Me2SO2 (0.2–0.3 mL), then filtered and diluted with pure D2O. The concentration (solubility) was calculated by the relative integral with respect to Me2SO2 (δ/ppm=3.14 (s, 6H)).

[2] = tested on: human pancreatic PSN‐1 cancer cells; assay: Cellular uptake, iron by GF-AAS; assay type: cell-based; conditions: PSN‐1 cells, 50 μM, 24 h, GF-AAS (μg Fe per 10^6 cells, Figure 4A)
Procedure: (§1) In order to correlate the cytotoxic potential to the ability of the newly developed complexes to enter cells, we performed uptake experiments. […] Thus, cells were treated for 24 h with equimolar concentrations (50 μM) of the tested compounds. The cellular iron levels were quantified by means of GF‐AAS analysis, and the results, expressed as μg Fe per 10^6 cells, are shown in Figure 4A. […]
(§2) Figure 4 Intracellular detection of iron and carbon monoxide. A) Cellular uptake in PSN‐1 and HEK293 cells; cells were incubated with 50 μM of complexes for 24 h, and the cellular iron content was detected by GFAAS analysis. B) Intracellular CO levels were determined by using a fluorescent probe (BioTracker Carbon Monoxide Probe 1 Live Cell Dye®, Merck, Germany) after 30 min of treatment of PSN‐1 or HEK293 cells with 20 μM [2C]CF3SO3 and [2D]CF3SO3, or 20 μM CORM‐401 as positive control. ** P<0.01, * P<0.05.
(§3) Cellular uptake. […] Cell monolayers were washed twice with cold PBS, harvested and counted. […] After cooling, each mineralized sample was analysed for iron using a Varian AA Duo graphite furnace atomic absorption spectrometer (Varian) at the wavelength of 248.3 nm. […]

[3] = tested on: untransformed HEK293 cells; assay: Cellular uptake, iron by GF-AAS; assay type: cell-based, human; conditions: 50 μM, 24 h, GF-AAS (μg Fe per 10^6 cells, Figure 4A)
Procedure: as §1, §2, §3

Solubility [1]	Substance	Cellular iron accumulation (uptake) [2]	Cellular iron accumulation (uptake) [3]
not soluble ^[a]	[Fe2Cp2(CO)2(μ‐CO){μ‐CNEt(2‐naphthyl)}]BF4 [[4G]BF4]		
	[Fe2Cp2(CO)2(μ‐CO){μ‐CNMe(4‐C6H4OMe)}]CF3SO3 [[2D]CF3SO3]	able to induce cellular iron accumulation	major iron accumulation in untransformed cells with respect to pancreatic cancer cells
